Data on three molecules can be found in EP4559896A1, “PH-SENSITIVE CATIONIC LIPID AND LIPID NANOPARTICLE” (National University Corporation Hokkaido University, priority 2022, dated 2024).

In one data set the test system is factor VII (F7). As to conditions: mouse liver; cited from earlier work.
Data set [1] can be described thus: average particle size and polydispersity index by dynamic light scattering. The data set is classed as physicochemical. As to conditions: Fluc mRNA-loaded lipid nanoparticles, TOT/DSPC/chol/PEG-DMG=65/15/20/1.5 (mol%). As to the method: The average particle size (number average value), ζ-average particle size, and polydispersity index (PdI) of the lipid nanoparticles in PBS(-) (pH 7.4), and the zeta potential in 10 mM HEPES buffer (pH 7.4) were measured using an analyzer "Zetasizer Nano ZS ZEN3600" (manufactured by Malvern) utilizing dynamic light scattering.

Data set [2] is described as follows: encapsulation rate of lipid nanoparticles (RiboGreen). The note with it: Fluc mRNA-loaded lipid nanoparticles, TOT/DSPC/chol/PEG-DMG=65/15/20/1.5 (mol%). The data set is classed as physicochemical. Here is the method: The encapsulation rate of the lipid nanoparticles was determined by measuring the amount of encapsulated nucleic acid (mRNA) using RiboGreen (manufactured by Life Technologies), which is an RNAintercalator. The amount of mRNA was quantified based on a calibration curve prepared from a dilution series solution of mRNA at a known concentration.
Specifically, 10 mM HEPES buffer (pH 7.4), 10 w/v% Triton X-100, and RiboGreen were mixed at 978.8 µL, 20 µL, and 1.25 µL per 10 wells, respectively, to obtain a Triton(+) buffer. A Triton(-) buffer was obtained in replacing Triton X-100 with 10 mM HEPES buffer (pH 7.4). 100 µL/well of the sample was added to a black 96-well plate for fluorescence measurement, and 100 µL/well of Triton(+) buffer or Triton(-) buffer was added. After the plate was gently shaken on a shaking incubator (SI-300, manufactured by AS ONE) (700 rpm, 30 seconds), the fluorescence intensity of each well was measured using a microplate reader (VARIOSKAN LUX, manufactured by Thermo Fisher Scientific) (wavelength Ex/Em=500 nm/525 nm), and the nucleic acid encapsulation rate (%) was calculated.

The next data set deals with BALB/c mice. Kind of data set: Fluc activity in tissues of mice administered with Fluc mRNA-loaded lipid nanoparticles. Type of data set: in vivo. The note with it: for Fluc activity, predominant organ (liver or spleen): Example 34, TOT-5/DSPC/chol/PEG-DMG=65/X/35-X/1.5 (mol%), i.v. 0.01 mg/kg Fluc mRNA, 6 hours. As to the method:
Lipid nanoparticles were administered to mice by intravenous injection into the tail vein using a 27G needle. Unless otherwise specified, BALB/c mice (4 to 5 weeks old, female) were used.
First, BALB/c mice (female, 4 weeks old) were intravenously injected with lipid nanoparticles encapsulating Fluc mRNA (Fluc mRNA-loaded lipid nanoparticles) at a dose of 0.01 mg mRNA/kg. Six hours after intravenous injection, the mice were euthanized, each tissue was collected, frozen in liquid nitrogen, and stored at -80°C. The tissues were homogenized in passive lysis buffer (manufactured by Promega) using a bead-type cell disruptor (Micro Smash MS-100R, manufactured by TOMY Seiko). Tissue debris was removed by centrifugation, and the supernatant was collected. Fluc activity in the supernatant was measured using the Luciferase Assay System (E1500, manufactured by Promega) according to the manufacturer's protocol. Luminescence was measured using a luminometer (Luminescencer-PSN, manufactured by ATTO). Protein concentration was determined using a commercially available assay kit (BCA Protein Assay Kit, manufactured by Pierce). Fluc activity was expressed as relative light units (RLU) per mg of protein.
Specifically, first, each lipid nanoparticle was intravenously administered into the tail vein of mice in an amount of 0.2 mg/kg of Fluc mRNA, and 6 hours after administration of the lipid nanoparticles, about 50 mg each of the liver, spleen, lung, heart, brain, and muscle was collected and stored frozen. 500 µL of passive lysis buffer (manufactured by Promega) was added to each tube containing the collected organ. The liver was homogenized at 4000 rpm for 20 seconds twice, the spleen, kidney, lung, and heart were homogenized at 5000 rpm for 20 seconds twice, and the muscle was homogenized at 5000 rpm for 20 seconds four times; then, the homogenate was centrifuged at 13000 rpm at 4°C for 10 minutes, and the supernatant was collected as a sample for measurement. The liver and spleen were diluted 100 times with passive lysis buffer. 50 µL of a measurement sample (tissue supernatant) was mixed with 50 µL of luciferase assay buffer of the Luciferase Assay System (E1500, manufactured by Promega) previously added in a test tube by pipetting, and the amount of luminescence was measured with a luminometer. Protein concentration was determined using a commercially available assay kit (BCA Protein Assay Kit, manufactured by Pierce). Fluc activity was expressed as relative light units (RLU) per mg of protein.

The test system of data set [3] is B cells, T cells, NK cells, dendritic cells, and neutrophils. Kind of data set: uptake of DiD-modified lipid nanoparticles by spleen cell types (DiD fluorescence intensity). Type of data set: in vivo, mice. As to conditions: Example 37, TOT-5/DSPC/chol/PEG-DMG=65/X/35-X/1.5 (mol%), 1 hour. Here is the method: First, DiD-modified Fluc mRNA-loaded lipid nanoparticles having a composition of TOT-5/DSPC/chol/PEG-DMG=65/X/35-X/1.5 (mol%) (X=3, 5, 10, 15, or 20) were prepared in the same manner as in Example 34, except that the red fluorescent substance DiD was incorporated at 0.5 mol% for DiD modification. The obtained DiD-modified Fluc mRNA-loaded lipid nanoparticles were intravenously administered into the tail vein of BALB/c mice so that the dose of Fluc mRNA was 0.2 mg/kg, the mice were euthanized 1 hour after administration, and the spleen was collected (N=3). As a control, the spleen was also collected from BALB/c mice not administered with lipid nanoparticles.
The spleen cells were stained to distinguish B cells, T cells, NK cells, dendritic cells, and neutrophils. […] After removing the supernatant, the cells were resuspended with 5 mL of cold HBSS(-) buffer, the number of cells was counted, the suspensions were added to a 1.5 mL tube so that 3×10^6 cells were added, and centrifuged at 4°C and 400×g for 5 minutes. […] 6 µL of propidium iodide solution was added to the sample, each cell group was extracted by each surface antigen, and then DiD fluorescence intensity was measured.
DiD-positive cells (cells emitting DiD fluorescence) are cells that have taken up DiD-modified Fluc mRNA-loaded lipid nanoparticles. […]

[4] abbreviates: Example 11, TOT-5/DOPE/chol/PEG-DMG=60/15/25/1, i.v. tail vein.
The mark [5] stands for this setting: Example 14, TOT-5/DSPC/chol/PEG-DMG=65/15/20/1, i.v. tail vein.

As for `CCCCC/C=C\C/C=C\CCCCCCCCC(CCCCCCCC/C=C\C/C=C\CCCCC)OC(=O)CCCN(C)C` [DLin-MC3-DMA], in the data set with factor VII (F7), the “ED50 in factor VII (F7) knockdown” value is 0.005 mg siRNA/kg.
As for `CCCCC/C=C\C/C=C\CCCCCCCCOC1(OCCCCCCCC/C=C\C/C=C\CCCCC)CCN(C)CC1` [YSK05], in the data set with factor VII (F7), the “ED50 in factor VII (F7) knockdown” value is 0.06 mg siRNA/kg.
Molecule `CCCCCCCC/C=C\CCCCCCCC(=O)OCC(COC(=O)CCCCCCC/C=C\CCCCCCCC)(COC(=O)CCCCCCC/C=C\CCCCCCCC)NC(=O)CCN1CCCCC1` [TOT-5, 2-((oleoyloxy)methyl)-2-(3-(piperidin-1-yl)propanamido)propane-1,3-diyl dioleate] returned a PdI in data set [1] of 0.161. For the same molecule, in data set [1], the “ζ-Average Particle Size” value is 102.1 nm. Moreover, in data set [2], the “Encapsulation Rate” value is reported as 88.6%. Besides, the “Fluc activity (RLU/mg protein) in the liver and spleen” value in the data set on BALB/c mice (Example 11, TOT-5/DOPE/chol/PEG-DMG=50 to 65/10 to 35/0 to 40/1 (mol%), all compositions, i.v. tail vein) is listed as “confirmed”; with BALB/c mice (Example 13, TOT/DOPE/chol/PEG-DMG=60/15/25/1.0 (mol%), i.v. tail vein), “very high”; in the data set on BALB/c mice (Example 14, TOT-5/DSPC/chol/PEG-DMG=55 to 70/5 to 30/10 to 35/1 (mol%), all compositions, i.v. tail vein), “confirmed”. For the same molecule, the “Fluc activity (RLU/mg protein) in the liver” value in the data set on BALB/c mice (setting [4]) was “high”; in the data set with BALB/c mice (Example 14, TOT-5/DSPC/chol/PEG-DMG=65/5/30/1, i.v. tail vein) it was “very high”; in the data set on BALB/c mice (setting [5]), “not so high”. The “Fluc activity (RLU/mg protein) in the spleen” value is “not so high” in the data set on BALB/c mice (setting [4]) and “high” with BALB/c mice (setting [5]). In addition, the “luciferase activity in the spleen compared with control mice (CL4F6-containing lipid nanoparticles)” value in the data set on BALB/c mice (Example 33, TOT/DSPC/chol/PEG-DMG=65/15/20/1.5, control CL4F6/DSPC/chol/PEG-DMG=50/10/40/1.5 (mol%), i.v. tail vein) is given as “higher”. For the same molecule, the “Fluc activity, predominant organ (liver or spleen)” value with BALB/c mice (DSPC content 10 mol% or more) was “predominantly in the spleen”; with BALB/c mice (DSPC content less than 10 mol%) it was “predominantly in the liver”. For the same molecule, the “uptake by spleen cell types (DiD fluorescence intensity)” value in data set [3] (X=3, 5, 10, 15, or 20, i.v. 0.2 mg/kg Fluc mRNA) is “highly taken up by B cells and dendritic cells”. Moreover, the “improvement of the uptake by B cells by increasing the DSPC content” value in data set [3] (X=3 to 20, i.v. 0.2 mg/kg Fluc mRNA) is recorded as “about 10 times”.
